# How the values were obtained:
# velvetleaf = assay: Test Example 2: soil surface treatment, upland pot test; type: in vivo, Abutilon theophrasti MEDIC.
# From the text: (§1) Upland field soil was put into a 1/170,000 ha pot, and seed of various plants (barnyardgrass, crabgrass, green foxtail, redroot pigweed, prickly sida, velvetleaf, rice, wheat, corn, soybean) were sown. On the 1st day after the sowing, a wettable powder or emulsifiable concentrate having the compound of the present invention formulated in accordance with a usual formulation method, was weighed so that the active ingredient would be a predetermined amount, and diluted with water in an amount of 1,500 L/ha. The herbicide thus adjusted was applied by a small size sprayer for soil surface treatment. On the 20th to 28th days after the application of the herbicide, the growth of the respective plants was visually observed, and the herbicidal effects were evaluated by the growth controlling degrees (%) ranging from 0 (equivalent to the non-treated plot) to 100 (complete kill), whereby the results shown in Table 4, were obtained.
# japanese bulrush = assay: Test Example 3: paddy pot test, application under submerged conditions; type: in vivo, Scirpus juncoides; details: submerged application at 0.5 leaf stage, visually observed 14 days after application, 0 = non-treated, 100 = complete kill
# Summary of the method: (§2)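 Visual rating of growth control (0% equals untreated, 100% complete kill) made 14 days after treatment. Compound, formulated as wettable powder or emulsifiable concentrate and diluted in water, was pipetted under submerged conditions at predetermined active-ingredient doses once weeds reached 0.5-leaf (barnyardgrass, bulrush) or primary-leaf (wapato, from tubers) stage. Pots of greenhouse paddy soil held 3–4 cm flooding.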
# japanese ribbon wapato = assay: as above; type: in vivo, Sagittaria pygniaea; details: submerged application at primary leaf stage, visually observed 14 days after application, 0 = non-treated, 100 = complete kill
# Summary of the method: as §2
# barnyardgrass [1] = assay: Test Example 2: soil surface treatment, upland pot test; type: in vivo, Echinochloa crus-galli L.
# From the text: as §1
# soybean = assay: as above; type: in vivo, Glycine max Merr.
# From the text: as §1
# green foxtail = assay: as above; type: in vivo, Setaria viridis L.
# From the text: as §1
# barnyardgrass [2] = assay: Test Example 3: paddy pot test, application under submerged conditions; type: in vivo, Echinochloa crus-galli L.; details: submerged application at 0.5 leaf stage, visually observed 14 days after application, 0 = non-treated, 100 = complete kill
# Summary of the method: as §2
# redroot pigweed = assay: Test Example 2: soil surface treatment, upland pot test; type: in vivo, Amaranthus retroflexus L.
# From the text: as §1
# corn = assay: as above; type: in vivo, Zea mays L.
# From the text: as §1
# rice (var. Nihonbare) = assay: Test Example 3: paddy pot test, transplanted rice; type: in vivo, Oryza sativa L.; details: applied 4th day after transplantation, visually observed 21st day after application, 0 = non-treated, 100 = complete kill
# Summary of the method: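 Visual crop-injury rating (0 = as untreated, 100 = complete kill, %) taken 21 days post-application. Treatment: formulated compound, water-diluted, pipetted into 3–4 cm flood water at a preset active-ingredient dose, 4 days after transplanting 2-leaf Nihonbare rice 3 cm deep in puddled paddy soil.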
# crabgrass = assay: Test Example 2: soil surface treatment, upland pot test; type: in vivo, Digitaria sanguinalis L.
# From the text: as §1
# rice = assay: as above; type: in vivo, Oryza sativa L.
# From the text: as §1
# prickly sida = assay: as above; type: in vivo, Sida spinosa L.
# From the text: as §1
# [3] = active ingredient 500 g/ha, observed day 21, 0 = non-treated, 100 = complete kill
# [4] = active ingredient 500 g/ha, observed 20th to 28th day
# [5] = active ingredient 250 g/ha, observed 20th to 28th day
Structure (SMILES),Growth controlling degree (%) Japanese bulrush (japanese bulrush; active ingredient 250 g/ha),Growth controlling degree (%) Japanese ribbon wapato (japanese ribbon wapato; active ingredient 250 g/ha),Growth controlling degree (%) Barnyardgrass (barnyardgrass [2]; active ingredient 250 g/ha),Growth controlling degree (%) Rice (rice (var. Nihonbare); active ingredient 250 g/ha),Growth controlling degree (%) Velvetleaf (velvetleaf; [4]),Growth controlling degree (%) Barnyardgrass (barnyardgrass [1]; [4]),Growth controlling degree (%) Soyabean (soybean; [4]),Growth controlling degree (%) Green foxtail (green foxtail; [4]),Growth controlling degree (%) Redroot pigweed (redroot pigweed; [4]),Growth controlling degree (%) Corn (corn; [4]),Growth controlling degree (%) Crabgrass (crabgrass; [4]),Growth controlling degree (%) Rice (rice; [4]),Growth controlling degree (%) Prickly sida (prickly sida; [4]),Growth controlling degree (%) Japanese bulrush (japanese bulrush; active ingredient 500 g/ha),Growth controlling degree (%) Rice (rice (var. Nihonbare); active ingredient 500 g/ha),other results
CC(C)C(c1cnccc1C(F)(F)F)N(C)C(=O)COc1ccc(Br)cc1 (stereo not drawn) [I-255],95%,20%,100%,0%,,,,,,,,,,,,Growth controlling degree (%) Velvetleaf (velvetleaf; [3]): 70%; Growth controlling degree (%) Barnyardgrass (barnyardgrass [1]; [3]): 95%; Growth controlling degree (%) Soyabean (soybean; [3]): 10%; Growth controlling degree (%) Green foxtail (green foxtail; [3]): 98%; Growth controlling degree (%) Redroot pigweed (redroot pigweed; [3]): 70%; Growth controlling degree (%) Corn (corn; [3]): 30%; Growth controlling degree (%) Crabgrass (crabgrass; [3]): 98%; Growth controlling degree (%) Rice (rice; [3]): 20%; Growth controlling degree (%) Prickly sida (prickly sida; [3]): 98%
CCN(C(=O)Cc1ccc(F)cc1)C(c1cnccc1C(F)(F)F)C(C)C (stereo not drawn) [Compound I-99],98%,90%,100%,0%,40%,100%,30%,100%,40%,40%,98%,20%,95%,,,
CC(C)C(c1cnccc1C(F)(F)F)N(C)C(=O)COc1cc(F)ccc1F (stereo not drawn) [Compound I-245],95%,70%,100%,10%,,,,,,,,,,,,Growth controlling degree (%) Velvetleaf (velvetleaf; [3]): 0%; Growth controlling degree (%) Barnyardgrass (barnyardgrass [1]; [3]): 90%; Growth controlling degree (%) Soyabean (soybean; [3]): 40%; Growth controlling degree (%) Green foxtail (green foxtail; [3]): 80%; Growth controlling degree (%) Redroot pigweed (redroot pigweed; [3]): 50%; Growth controlling degree (%) Corn (corn; [3]): 50%; Growth controlling degree (%) Crabgrass (crabgrass; [3]): 80%; Growth controlling degree (%) Rice (rice; [3]): 35%; Growth controlling degree (%) Prickly sida (prickly sida; [3]): 70%
CC(C)C(c1cnccc1C(F)(F)F)N(C)C(=O)Cc1cc(F)cc(C(F)(F)F)c1 (stereo not drawn) [Compound I-97],80%,0%,100%,0%,40%,60%,10%,100%,60%,20%,98%,40%,90%,,,
Cc1cc(Cl)ccc1OCC(=O)N(C)C(c1cnccc1C(F)(F)F)C(C)C (stereo not drawn) [I-234],90%,40%,100%,0%,30%,95%,0%,70%,70%,0%,98%,10%,50%,,,
CC(C)C(c1cnccc1Cl)N(C)C(=O)COc1ccccc1 (stereo not drawn) [Compound I-84],98%,20%,98%,0%,0%,80%,0%,30%,50%,20%,70%,20%,0%,,,
CC(C)C(c1cnccc1C(F)(F)F)N(C)C(=O)Cc1ccc(Cl)cc1 (stereo not drawn) [I-23],,,,,,,,,,,,,,90%,30%,Growth controlling degree (%) Velvetleaf (velvetleaf; [5]): 60%; Growth controlling degree (%) Japanese ribbon wapato (japanese ribbon wapato; active ingredient 500 g/ha): 85%; Growth controlling degree (%) Barnyardgrass (barnyardgrass [1]; [5]): 95%; Growth controlling degree (%) Soyabean (soybean; [5]): 20%; Growth controlling degree (%) Green foxtail (green foxtail; [5]): 98%; Growth controlling degree (%) Redroot pigweed (redroot pigweed; [5]): 85%; Growth controlling degree (%) Corn (corn; [5]): 10%; Growth controlling degree (%) Crabgrass (crabgrass; [5]): 98%; Growth controlling degree (%) Rice (rice; [5]): 0%; Growth controlling degree (%) Prickly sida (prickly sida; [5]): 98%
CC(C)C(c1cnccc1C(F)(F)F)N(C)C(=O)Cc1c(F)ccc(F)c1F (stereo not drawn) [Compound I-17],,,,,80%,100%,20%,100%,50%,20%,98%,30%,90%,90%,35%,Growth controlling degree (%) Japanese ribbon wapato (japanese ribbon wapato; active ingredient 500 g/ha): 90%
CC(C)C(c1cnccc1C(F)(F)F)N(C)C(=O)Cc1ccccc1F (stereo not drawn) [Compound I-25],,,,,,,,,,,,,,98%,30%,Growth controlling degree (%) Velvetleaf (velvetleaf; [5]): 95%; Growth controlling degree (%) Japanese ribbon wapato (japanese ribbon wapato; active ingredient 500 g/ha): 100%; Growth controlling degree (%) Barnyardgrass (barnyardgrass [1]; [5]): 98%; Growth controlling degree (%) Soyabean (soybean; [5]): 10%; Growth controlling degree (%) Green foxtail (green foxtail; [5]): 100%; Growth controlling degree (%) Redroot pigweed (redroot pigweed; [5]): 100%; Growth controlling degree (%) Corn (corn; [5]): 20%; Growth controlling degree (%) Crabgrass (crabgrass; [5]): 100%; Growth controlling degree (%) Rice (rice; [5]): 20%; Growth controlling degree (%) Prickly sida (prickly sida; [5]): 100%
CC(C)C(c1cnccc1C(F)(F)F)N(C)C(=O)SCc1ccccc1 (racemic) [I-113],30%,,95%,0%,60%,60%,10%,95%,70%,20%,70%,30%,60%,,,
CC(C)C(c1cnccc1C(F)(F)F)N(C)C(=O)C=Cc1cccnc1 (stereo not drawn) [Compound I-184],,,,,50%,30%,20%,40%,30%,0%,98%,20%,80%,90%,10%,Growth controlling degree (%) Barnyardgrass (barnyardgrass [2]; active ingredient 500 g/ha): 70%
